Laboratory results published in patent publication US20150148320A1, “COSMETIC USE OF SALICYLIC ACID DERIVATIVES” (Avon Products, Inc., priority 2013, published 2015).

What was measured:
[1] = Skin PAMPA parallel artificial membrane penetration assay; assay type: in vitro ADME; conditions: 50 μM, donor pH 4.25, acceptor pH 7.4, two hours incubation
Method: Several salicylic acid derivatives were assessed for their ability to penetrate skin. Each of the compounds was formulated in an aqueous buffer, with a final pH of 4.25 at a concentration of 50 μM. The skin permeability of the compounds was measured using a high throughput transdermal permeability model, the parallel artificial membrane penetration assay (Skin PAMPA™), which uses a skin mimetic artificial membrane that simulates the barrier properties of the strateum corneum.
Briefly, the Skin PAMPA™ assay is a sandwich assay that utilizes two 96-well plate assemblies, one of which acts as the acceptor chambers (comprising a buffer), and one of which acts as the donor chambers (comprising a buffer and the compound to be tested). […] After an incubation period, the donor and acceptor chambers are analyzed for the amount of compound present.
In the current experiments, the acceptor chamber included an acceptor solution made from Prisma™ HT buffer solution (Pion, Inc.) that was adjusted to a pH of 7.4±0.05 using 1.0 M NaOH, and the donor chamber included a donor solution made from Prisma™ HT buffer solution (Pion, Inc.) that was adjusted to a pH of 4.25±0.05 using 1.0 M NaOH. […] Effective permeability was then calculated by the same method as Sinko et al., Eur. J. Pharm. […]

[2] = molecular target: T1, recombinant human (rh) KLK5 (Homo sapiens, UniProt Q9Y337); test: Enzymatic activity of Kallikrein 5 (KLK5), fluorogenic peptide substrate Boc-V-P-R-AMC; assay type: biochemical
T1 construct: purchased R&D Systems 1108-SE
T1 sequence (Q9Y337 23-293): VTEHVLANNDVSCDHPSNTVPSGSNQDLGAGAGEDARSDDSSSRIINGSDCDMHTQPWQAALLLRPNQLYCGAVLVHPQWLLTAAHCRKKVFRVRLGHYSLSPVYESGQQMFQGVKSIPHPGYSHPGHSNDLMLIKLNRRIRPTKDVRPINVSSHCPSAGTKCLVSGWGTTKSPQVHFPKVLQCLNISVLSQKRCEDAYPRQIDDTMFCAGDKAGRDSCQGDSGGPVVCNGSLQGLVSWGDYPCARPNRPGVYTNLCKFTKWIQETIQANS
Method: Compound 1 was assayed for enzymatic activity of Kallikrein 5 (KLK5) as follows, and its activity compared to that of salicylic acid. The KLK5 activity of compound 1 was calculated as a percentage of KLK5 activity relative to salicylic acid. The KLK5 activity of compound 1 was about 165% relative to the KLK5 activity of salicylic acid.
In the stratum corneum, skin's outermost layer, cell-to-cell cohesion depends primarily on proteins known as the corneodesmosomes. During skin remodeling and renewal dead cells are shed from the skin surface by the action of native proteases that break down the corneodesmosomes. […] Hypothetically, up-regulation of the activities of these proteases using different active candidates could be utilized to increase the rate of shedding of dead skin, thus providing a natural means for skin exfoliation. To this end, the enzymatic activity of a member of the KLK family, recombinant human (rh) KLK5, was monitored following pre-incubation with actives and measuring the rate of peptide bond cleavage of a synthetic substrate.
Enzymatic activity of KLK5 was measured by incubating recombinant human (rh) KLK5 protease (R&D Systems, Cat No. 1108-SE) with a specific fluorogenic peptide substrate Boc-V-P-R-AMC (R& D Systems, Cat No. ES011). The substrate is conjugated to a quenched fluorescent group. […] Increase in fluorescence reading indicates an increase in rhKLK5 activity. […] After 60 seconds of incubation, fluorescence was measured at 340 nm (Excitation wavelength) and 485 nm (Emission wavelength) every 1 minute for 7 minutes. Rate (kinetics) of enzyme activity was calculated as follows: Rate of enzyme activity=Change of fluorescent reading (after background correction) Change of reaction time (min) Percent change of activity due to a test compound was calculated by comparing rate of enzyme activity in the presence of the test compound to that of a control without the test compound and statistical significance was calculated using a t-test. […]

- skin permeability as compared to salicylic acid (in words) [1]: higher permeability
- stimulation of KLK5 (in words) ([2]; rhKLK5): very potent stimulator of KLK5
- KLK5 activity as a percentage relative to the KLK5 activity of salicylic acid ([2]; rhKLK5, rate of enzyme activity relative to salicylic acid): about 165%
- KLK5 activity as compared to salicylic acid (in words) ([2]; rhKLK5, FIG. 1 asterisk): superior KLK5 activity
Compound: CCOC(=O)c1cc2c(c(C(=O)OCC)c1O)CCCC2 [Compound 1]
